The results in this text go back to the NIST ThermoML archive (doi:10.1016/j.jct.2012.11.032).

Broadly, the mass density is mass per unit of volume. As usually defined, the speed of sound is how fast a sound wave travels through the sample.

Structures are written as SMILES. Where “and” joins values, the source holds several entries; their conditions need not be identical. Equal entries are not always repeated. ± gives the expanded uncertainty stated by the source.

The conditions of data set [1]: 101 kPa, Liquid, Vibrating tube method.
Data set [2] can be described thus: xn = mol fraction of the nth substance listed. The note with it: 101 kPa, Liquid, x2 = 0; for mass density: Vibrating tube method; for speed of sound: Sing-around technique in a fixed-path interferometer.

In the case of `O` [water], the mass density in data set [1] (283 K) is 999.754 ± 0.1 kg/m3 and 999.719 ± 0.1 kg/m3 and 999.713 ± 0.1 kg/m3; in data set [1] (288 K), 999.166 ± 0.1 kg/m3; in data set [1] (293 K) it was 998.283 ± 0.1 kg/m3; in data set [1] (303 K), 995.75 ± 0.1 kg/m3; in data set [1] (308 K), 994.099 ± 0.1 kg/m3 and 994.091 ± 0.1 kg/m3 and 994.144 ± 0.1 kg/m3; in data set [1] (313 K) it was 992.27 ± 0.11 kg/m3 and 992.33 ± 0.1 kg/m3.

Regarding `O` [water] + CCCCCCCCCCCC[n+]1ccn(C)c1.[Cl-], the mass density in data set [2] (283 K) was 999.719 ± 0.1 kg/m3; in data set [2] (308 K) it was 994.091 ± 0.1 kg/m3; in data set [2] (313 K) it was 992.27 ± 0.1 kg/m3. Moreover, the speed of sound in data set [2] (313 K) came out at 1529 ± 1.2 m/s.

In the case of `O` [water] + CCCCCCCCCCn1cc[n+](C)c1.[Cl-], the mass density in data set [2] (283 K) was determined as 999.713 ± 0.1 kg/m3; in data set [2] (308 K), 994.099 ± 0.1 kg/m3. The speed of sound in data set [2] (313 K) came to 1529 ± 1.2 m/s.

In the case of `O` [water] + CCCCCCCC[n+]1ccn(C)c1.[Cl-], the mass density came out at 999.754 ± 0.1 kg/m3 in data set [2] (283 K); 999.166 ± 0.1 kg/m3 in data set [2] (288 K); 998.283 ± 0.1 kg/m3 in data set [2] (293 K); 995.75 ± 0.1 kg/m3 in data set [2] (303 K); 994.144 ± 0.1 kg/m3 in data set [2] (308 K); 992.33 ± 0.1 kg/m3 in data set [2] (313 K). For the same compound, the speed of sound in data set [2] (313 K) came to 1529 ± 1.2 m/s.
